These results are taken from patent US11814376B2, “Hepatitis b core protein modulators” (Assembly Biosciences, Inc., priority 2015, dated 2023).

The subject of one data set is AD38 cells. The experiment in a line: Viability of AD38 cells (Promega CellTiter-Glo). The class given is cell-based. To be noted: 10 μM compound, 6 days, CellTiter-Glo luminescence normalized to DMSO control (100%). In outline:
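AD38 cells were seeded at 50,000/well on collagen-coated plates and treated with compound added as a 10× solution in 10% DMSO for 6 days at 37° C. Viability was measured by CellTiter-Glo luminescence in tetracycline-free medium with 2% FBS and 1% DMSO, and expressed as percent of DMSO control.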
(Cellular ATP, detected with luciferase, serves as a proxy for viable cell number.)

Data set [1] has as its system HBV viral load in AD38 cells. Briefly: Viral load production in AD38 cells, quantitative PCR of the core sequence in supernatant. The class given is cell-based. Conditions: Hepatitis B virus, 144 h, 10 μM compound, 6 days at 37° C., supernatant qPCR, relative to DMSO control; read-out: AD38 Viral Load (%) (VL with cmpd/VL in DMSO control) at 10 μM. For orientation: In qPCR the cycle at which signal appears reflects the starting amount.

Turning to `CN(C)CCSc1ncc(CNC(=O)c2ccc3c(c2)NC(=O)c2ccccc2S3(=O)=O)s1` [compound 1590], in the data set on AD38 cells, the “AD38 Viability Normalized Result (cmpd/DMSO %) at 10 μM” value was determined as 95%. Also, the activity at 10 µM in data set [1] is 6.2%.

As to `Cc1ncc(CNC(=O)c2ccc3c(=O)c4ccccc4c(=O)[nH]c3c2)s1` [compound 1592], in the data set on AD38 cells, the “AD38 Viability Normalized Result (cmpd/DMSO %) at 10 μM” value worked out at 99%. Further, the activity at 10 µM in data set [1] was 1.3%.

In the case of `O=C(NCc1cnc(-c2ccccc2)s1)c1ccc2c(=O)c3ccccc3c(=O)[nH]c2c1` [compound 1594], the “AD38 Viability Normalized Result (cmpd/DMSO %) at 10 μM” value with AD38 cells is given as 105%. Moreover, in data set [1], the activity at 10 µM stood at 0.9%.

Consider `O=C(NCc1cnc(-c2ccc(O)cc2)s1)c1ccc2c(c1)NC(=O)c1ccccc1S2(=O)=O` [compound 1595, N-((2-(4-hydroxyphenyl)thiazol-5-yl)methyl)-11-oxo-10, 11-dihydrodibenzo [b, f] [1, 4] thiazepine-8-carboxamide 5,5-dioxide], for which the “AD38 Viability Normalized Result (cmpd/DMSO %) at 10 μM” value in the data set on AD38 cells is on record as 109%. The activity at 10 µM in data set [1] came out at 0.3%.

As for `COc1ccc(-c2ncc(CNC(=O)c3ccc4c(c3)NC(=O)c3ccccc3S4(=O)=O)s2)cc1` [compound 1596], in the data set with AD38 cells, the “AD38 Viability Normalized Result (cmpd/DMSO %) at 10 μM” value turned out to be 25%. In data set [1], the activity at 10 µM worked out at 3.8%.

Regarding `O=C(NCc1cnc(N2CCOCC2)s1)c1ccc2c(c1)NC(=O)c1ccccc1S2` [compound 1598], in the data set on AD38 cells, the “AD38 Viability Normalized Result (cmpd/DMSO %) at 10 μM” value was found to be 97%. In data set [1], the activity at 10 µM was determined as 1.4%.

Take `O=C(O)c1ccc(-c2ncc(CNC(=O)c3ccc4c(c3)NC(=O)c3ccccc3S4)s2)cc1` [compound 1599, 4-(5-((11-oxo-10, 11-dihydrodibenzo [b, f] [1, 4]thiazepine-8-carboxamido)methyl)thiazol-2-yl) benzoic acid]: the “AD38 Viability Normalized Result (cmpd/DMSO %) at 10 μM” value in the data set on AD38 cells is listed as 61%. For the same molecule, the activity at 10 µM in data set [1] was 5.9%.

As to `O=C(O)CNc1ncc(CNC(=O)c2ccc3c(c2)NC(=O)c2ccccc2S3)s1` [compound 1602, (5-((11-oxo-10, 11-dihydrodibenzo [b, f] [1, 4]thiazepine-8-carboxamido)methyl)thiazol-2-yl) glycine], the “AD38 Viability Normalized Result (cmpd/DMSO %) at 10 μM” value in the data set on AD38 cells worked out at 97%. Also, the activity at 10 µM in data set [1] turned out to be 59.8%.

Consider `O=C(O)CSc1ncc(CNC(=O)c2ccc3c(c2)NC(=O)c2ccccc2S3)s1` [compound 1603, 2-((5-((11-oxo-10, 11-dihydrodibenzo [b, f] [1, 4]thiazepine-8-carboxamido)methyl)thiazol-2-yl)thio) acetic acid], for which, in the data set on AD38 cells, the “AD38 Viability Normalized Result (cmpd/DMSO %) at 10 μM” value is listed as 108%. Besides, the activity at 10 µM in data set [1] came out at 32.8%.

Take `CN(C)CCSc1ncc(CNC(=O)c2ccc3c(c2)NC(=O)c2ccccc2S3)s1` [compound 1604]: the “AD38 Viability Normalized Result (cmpd/DMSO %) at 10 μM” value in the data set on AD38 cells is 82%. Besides, the activity at 10 µM in data set [1] stood at 0.9%.

Consider `O=C(NCc1cnc(-c2ccc(O)cc2)s1)c1ccc2c(c1)NC(=O)c1ccccc1S2` [compound 1605], for which, in the data set on AD38 cells, the “AD38 Viability Normalized Result (cmpd/DMSO %) at 10 μM” value is recorded as 96%. Besides, in data set [1], the activity at 10 µM is 0.7%.

Consider `COc1ccc(-c2ncc(CNC(=O)c3ccc4c(c3)NC(=O)c3ccccc3S4)s2)cc1` [compound 1606], for which the “AD38 Viability Normalized Result (cmpd/DMSO %) at 10 μM” value in the data set on AD38 cells is given as 91%. Besides, the activity at 10 µM in data set [1] came to 3%.

`O=C(O)COc1ccc(-c2ncc(CNC(=O)c3ccc4c(c3)NC(=O)c3ccccc3S4)s2)cc1` [compound 1607, 2-(4-(5-((11-oxo-10, 11-dihydrodibenzo [b, f] [1, 4]thiazepine-8-carboxamido)methyl)thiazol-2-yl)phenoxy) acetic acid]: the “AD38 Viability Normalized Result (cmpd/DMSO %) at 10 μM” value in the data set on AD38 cells is given as 98%. The activity at 10 µM in data set [1] was 52.8%.

As for `CN(C)CCOc1ccc(-c2ncc(CNC(=O)c3ccc4c(c3)NC(=O)c3ccccc3S4)s2)cc1` [compound 1608], the “AD38 Viability Normalized Result (cmpd/DMSO %) at 10 μM” value in the data set with AD38 cells worked out at 98%. In data set [1], the activity at 10 µM worked out at 12.4%.

For `O=C(NCc1cnc(N2CCOCC2)s1)c1ccc2c(c1)NC(=O)c1ccccc1O2` [compound 1611], in the data set on AD38 cells, the “AD38 Viability Normalized Result (cmpd/DMSO %) at 10 μM” value is given as 100%. In data set [1], the activity at 10 µM is 1.4%.

Take `O=C(O)c1ccc(-c2ncc(CNC(=O)c3ccc4c(c3)NC(=O)c3ccccc3O4)s2)cc1` [compound 1612, 4-(5-((11-oxo-10, 11-dihydrodibenzo [b, f] [1, 4]oxazepine-8-carboxamido)methyl)thiazol-2-yl) benzoic acid]: the “AD38 Viability Normalized Result (cmpd/DMSO %) at 10 μM” value in the data set with AD38 cells amounted to 105%. In addition, in data set [1], the activity at 10 µM was found to be 6.9%.

In the case of `CN(C)CCOc1ncc(CNC(=O)c2ccc3c(c2)NC(=O)c2ccccc2O3)s1` [compound 1614, N-((2-(2-(dimethylamino)ethoxy)thiazol-5-yl)methyl)-11-oxo-10, 11-dihydrodibenzo [b, f] [1, 4] oxazepine-8-carboxamide], the “AD38 Viability Normalized Result (cmpd/DMSO %) at 10 μM” value with AD38 cells is 98%. Also, the activity at 10 µM in data set [1] stood at 8.5%.

With `O=C(O)CNc1ncc(CNC(=O)c2ccc3c(c2)NC(=O)c2ccccc2O3)s1` [compound 1615, (5-((11-oxo-10, 11-dihydrodibenzo [b, f] [1, 4]oxazepine-8-carboxamido)methyl)thiazol-2-yl) glycine], the “AD38 Viability Normalized Result (cmpd/DMSO %) at 10 μM” value in the data set with AD38 cells is recorded as 103%. Also, in data set [1], the activity at 10 µM turned out to be 54.9%.

As to `O=C(O)CSc1ncc(CNC(=O)c2ccc3c(c2)NC(=O)c2ccccc2O3)s1` [compound 1616, 2-((5-((11-oxo-10, 11-dihydrodibenzo [b, f] [1, 4]oxazepine-8-carboxamido)methyl)thiazol-2-yl)thio) acetic acid], the “AD38 Viability Normalized Result (cmpd/DMSO %) at 10 μM” value in the data set with AD38 cells worked out at 103%. Also, in data set [1], the activity at 10 µM turned out to be 105%.

`CN(C)CCSc1ncc(CNC(=O)c2ccc3c(c2)NC(=O)c2ccccc2O3)s1` [compound 1617]: in the data set with AD38 cells, the “AD38 Viability Normalized Result (cmpd/DMSO %) at 10 μM” value turned out to be 101%. In addition, the activity at 10 µM in data set [1] stood at 2.2%.

For `O=C(NCc1cnc(-c2ccc(O)cc2)s1)c1ccc2c(c1)NC(=O)c1ccccc1O2` [compound 1618], in the data set with AD38 cells, the “AD38 Viability Normalized Result (cmpd/DMSO %) at 10 μM” value came out at 100%. The activity at 10 µM in data set [1] was found to be 1.9%.

On to `COc1ccc(-c2ncc(CNC(=O)c3ccc4c(c3)NC(=O)c3ccccc3O4)s2)cc1` [compound 1619], for which, in the data set with AD38 cells, the “AD38 Viability Normalized Result (cmpd/DMSO %) at 10 μM” value is 95%. In data set [1], the activity at 10 µM was 1.3%.

For the molecule `O=C(O)COc1ccc(-c2ncc(CNC(=O)c3ccc4c(c3)NC(=O)c3ccccc3O4)s2)cc1` [compound 1620, 2-(4-(5-((11-oxo-10, 11-dihydrodibenzo [b, f] [1, 4]oxazepine-8-carboxamido)methyl)thiazol-2-yl)phenoxy) acetic acid], in the data set with AD38 cells, the “AD38 Viability Normalized Result (cmpd/DMSO %) at 10 μM” value is on record as 103%. Moreover, in data set [1], the activity at 10 µM was found to be 41.9%.

As to `CN(C)CCOc1ccc(-c2ncc(CNC(=O)c3ccc4c(c3)NC(=O)c3ccccc3O4)s2)cc1` [compound 1621], the “AD38 Viability Normalized Result (cmpd/DMSO %) at 10 μM” value with AD38 cells came out at 81%. The activity at 10 µM in data set [1] amounted to 25.9%.

Turning to `O=C(NCc1cnc(-c2cccnc2)s1)c1ccc2c(c1)NC(=O)c1ccccc1S2(=O)=O` [compound 1624], the “AD38 Viability Normalized Result (cmpd/DMSO %) at 10 μM” value in the data set on AD38 cells is on record as 98%. For the same molecule, the activity at 10 µM in data set [1] came to 0.8%.

Take `O=C(NCc1cnc(-c2ccncc2)s1)c1ccc2c(c1)NC(=O)c1ccccc1S2(=O)=O` [compound 1625]: in the data set with AD38 cells, the “AD38 Viability Normalized Result (cmpd/DMSO %) at 10 μM” value amounted to 96%. In addition, in data set [1], the activity at 10 µM is 51.9%.

Turning to `O=C(NCc1cnc(-c2cncnc2)s1)c1ccc2c(c1)NC(=O)c1ccccc1S2(=O)=O` [compound 1626], the “AD38 Viability Normalized Result (cmpd/DMSO %) at 10 μM” value with AD38 cells was determined as 99%. Also, the activity at 10 µM in data set [1] is 2.7%.

Regarding `N#Cc1ncc(CNC(=O)c2ccc3c(c2)NC(=O)c2ccccc2S3)s1` [compound 1627], the “AD38 Viability Normalized Result (cmpd/DMSO %) at 10 μM” value in the data set with AD38 cells is 63%. Further, the activity at 10 µM in data set [1] turned out to be 6%.

Turning to `N#Cc1ncc(CNC(=O)c2ccc3c(c2)NC(=O)c2ccccc2S3(=O)=O)s1` [compound 1628], the “AD38 Viability Normalized Result (cmpd/DMSO %) at 10 μM” value in the data set with AD38 cells is given as 95%. Further, the activity at 10 µM in data set [1] turned out to be 21.8%.

As for `O=C(NCc1cnc(C(F)(F)F)s1)c1ccc2c(c1)NC(=O)c1ccccc1O2` [compound 1629], the “AD38 Viability Normalized Result (cmpd/DMSO %) at 10 μM” value with AD38 cells is reported as 107%. For the same molecule, the activity at 10 µM in data set [1] worked out at 3.2%.

Consider `CN(C)C1CCN(c2ncc(CNC(=O)c3ccc4c(c3)NC(=O)c3ccccc3S4(=O)=O)s2)CC1` [compound 1636], for which, in the data set with AD38 cells, the “AD38 Viability Normalized Result (cmpd/DMSO %) at 10 μM” value is listed as 95%. In addition, the activity at 10 µM in data set [1] is 76.9%.

Turning to `O=C(NCc1cnc(-c2ccc3[nH]cnc3c2)s1)c1ccc2c(c1)NC(=O)c1ccccc1S2(=O)=O` [compound 1637], in the data set with AD38 cells, the “AD38 Viability Normalized Result (cmpd/DMSO %) at 10 μM” value turned out to be 101%. Also, the activity at 10 µM in data set [1] was found to be 2.3%.

`CN(C)c1ccc(-c2ncc(CNC(=O)c3ccc4c(c3)NC(=O)c3ccccc3S4(=O)=O)s2)cc1` [compound 1645]: in the data set on AD38 cells, the “AD38 Viability Normalized Result (cmpd/DMSO %) at 10 μM” value amounted to 101%. Besides, the activity at 10 µM in data set [1] is 6.7%.

As to `CN1CCN(c2ncc(CNC(=O)c3ccc4c(c3)NC(=O)c3ccccc3S4(=O)=O)s2)CC1` [compound 1648], the “AD38 Viability Normalized Result (cmpd/DMSO %) at 10 μM” value with AD38 cells was determined as 95%. In addition, in data set [1], the activity at 10 µM came to 9.9%.

As for `O=C(NCc1nccs1)c1ccc2c(c1)NC(=O)c1ccccc1S2(=O)=O` [compound 1650], the “AD38 Viability Normalized Result (cmpd/DMSO %) at 10 μM” value with AD38 cells is recorded as 82%. Besides, the activity at 10 µM in data set [1] is 58.8%.

Regarding `Cl.N=C(N)c1ccc(-c2ncc(CNC(=O)c3ccc4c(c3)NC(=O)c3ccccc3S4(=O)=O)s2)cc1` [compound 1653, N-((2-(4-carbamimidoylphenyl)thiazol-5-yl)methyl)-11-oxo-10, 11-dihydrodibenzo [b, f] [1, 4] thiazepine-8-carboxamide 5,5-dioxide hydrochloride], in the data set on AD38 cells, the “AD38 Viability Normalized Result (cmpd/DMSO %) at 10 μM” value was 108%. In addition, in data set [1], the activity at 10 µM was determined as 65.4%.
